Reference: patent US6031071A, “Methods of generating novel peptides” (Biophage, Inc., priority 1996, dated 2000)
“Also recorded” adds a separate entry of the source.

Assays:
[1] = target: phage V6 (peptide V6) binding to doxorubicin; test: Displacement assay: inhibition of V6 phage binding to doxorubicin-BSA coated wells by drugs; conditions: for IC50: read-out: IC50 for inhibiting the binding of phages V6 to doxorubicin; for blocking/displacement of the interaction of the phage with doxorubicin: result in words
Experimental: Phage V6 (10^10 virions) was preincubated for 1 hr at room temperature in 100 μl of 0.1% BSA/PBS buffer containing different drug concentrations (10^-4 M to 10^-9 M), and aliquots were added to microtiter wells, which were […] with doxorubicin-BSA as previously described in Example II. After a 1-h incubation at room temperature, the wells were washed 12 times with PBS and the remaining bound phages eluted with 50 μl of 0.1 M HCl (pH adjusted to 2.2 with glycine). The phages were quantitated by titration on log phase of E. coli K91Kan cells plated on LB plates with […] tetracycline (Parmley & Smith, Gene, 73: 305-318 (1988)).

[2] = ELISA control empty wells (plastic binding)
Experimental: Phages from the second PEG precipitation (Parmley & Smith, Gene, 73: 305-318 (1988)) were dissolved in 210 μl of 0.15 M NaCl, microfuged for 1 min, precipitated from 200 μl of the supernatant by the addition of 21.2 μl of 1 M acetic acid, and by incubation for 10 min at room temperature and 10 min on ice. (Scott & Smith, Science, 249: 386-390 (1990)). Phages were sedimented (microfuged, 45 min, 4 C.) and dissolved in 60 μl of TBS. Phage concentration was determined as described in Parmley & Smith, Gene, 73: 305-318 (1988). These partially purified phages were subjected to one round of screening, except that the phages were not acid eluted. Instead, blocking solution [250 μl of nonfat dry milk ([…]) in 0,05% TWEEN20 ™/TBS (TWEEN20 ™: Polysorbate 20)] was added to the wells. After a 2-h incubation at room temperature, wells were washed three times in 0.05% TWEEN20 ™/TBS. Rabbit anti-phage fd-ted serum, 100 μl of a 1:1000 dilution (in blocking solution) was added to wells and incubated overnight. Wells were washed seven times in 0.05% TWEEN20 ™/TBS and once with TBS; 100 μl of a peroxidase-conjugated goat anti-rabbit immunoglobulin were then added (Kirkegaard & Perry Labs, Maryland, USA, diluted 1:1000). […] To reveal the reaction, 100 μl of ABTS solution (Kirkegaard & Perry Labs, Maryland, USA) were added, incubated for 30 min at room temperature, and read in a microplate reader. […]

[3] = ELISA of phage binding to immobilized doxo-BSA, detected with polyclonal anti-phage serum; conditions: result in words
Experimental: In order to characterize the binding of individual clones, four different clones V6, V10, V12 and A4 together with the control phage X1 were analyzed for binding to doxorubicin in an ELISA experiment in which polyclonal anti-phage antibodies were used to detect bound phages. Antisera were raised against fd-Tet phage lacking insertion into pIII. Three rabbits were injected intramuscularly with 0.5 mg of fd-ted phages in Freunds complete adjuvant and then boosted three times with 0.25 mg of fd-ted phages in incomplete adjuvant at 3 weeks intervals. The titer of the antisera was measured with an ELISA using phage immobilized in Maxisorb microtiter wells as described (Motti et al., Gene, 146: 91-198 (1994)). All rabbits produced high titer antisera after the second boost. […]
Phages from the second PEG precipitation (Parmley & Smith, Gene, 73: 305-318 (1988)) were dissolved in 210 μl of 0.15 M NaCl, microfuged for 1 min, precipitated from 200 μl of the supernatant by the addition of 21.2 μl of 1 M acetic acid, and by incubation for 10 min at room temperature and 10 min on ice. […] Phage concentration was determined as described in Parmley & Smith, Gene, 73: 305-318 (1988). […] To reveal the reaction, 100 μl of ABTS solution (Kirkegaard & Perry Labs, Maryland, USA) were added, incubated for 30 min at room temperature, and read in a microplate reader. […]

[4] = phage V6 10^10 virions preincubated 1 hr with drug 10^-4 M to 10^-9 M, doxorubicin-BSA coated wells

Row | Compound | IC50 for inhibiting the binding of phages V6 to doxorubicin [1, 4] | IC50 [1, 4] [nM] | blocking/displacement of the interaction of the phage with doxorubicin [1] | binding of phage to plastic [2] | binding of display phage to doxorubicin (ELISA, OD405) [3]
1 | Nc1ccn([C@@H]2O[C@H](CO)[C@@H](O)[C@@H]2O)c(=O)n1 [Ara-C] | essentially inactive | – | – | – | –
2 | COc1cccc2c1C(=O)c1c(O)c3c(c(O)c1C2=O)C[C@@](O)(C(=O)CO)C[C@@H]3O[C@H]1C[C@H](N)[C@H](O)[C@H](C)O1 [doxorubicin] | – | 4.5 | could be blocked | – | –
3 | CC[C@]1(O)C[C@@H]2CN(CCc3c([nH]c4ccccc34)[C@@](C(=O)OC)(c3cc4c(cc3OC)N(C)[C@H]3[C@@](O)(C(=O)OC)[C@H](OC(C)=O)[C@]5(CC)C=CCN6CC[C@]43[C@@H]65)C2)C1 [vinblastine] | – | 1.5 | displaced; also recorded: could be blocked | – | –
4 | VCDWWGWGIC [phage V6] | – | – | – | only background binding | strong specific binding
